Data from patent EP4375289A1, “PEPTIDE WITH ANTIMICROBIAL ACTIVITY” (Freie Universität Berlin, priority 2022, dated 2024).
pEC50: −log10 of the molar value. Square brackets hold non-standard residues; d marks the D form. Peptide text beside a SMILES is read from it. 2Abz = Nc1ccccc1C(=O)O; Abu = CC[C@H](N)C(=O)O

How the values were obtained:
[1] = Peptide-induced membrane disrupting activity; assay type: biochemical; conditions: artificial phospholipid membranes at physiological pH
Experimental: Peptide-induced membrane disrupting activity was determined before by calculation of EC50 values and an increase in bioactivity with a growing degree of side chain fluorination was found.

S. Typhimurium = assay: Minimum inhibitory concentration (MIC) assay, CLSI broth dilution; assay type: cell-based; conditions: S. Typhimurium ATCC 14028
Experimental: (§1) Minimum inhibitory concentrations (MIC) assays were performed according to Clinical and Laboratory Standards Institute (CLSI) recommendations in cation-adjusted Mueller-Hinton broth (Mueller-Hinton II) broth in flat-bottomed, 96-well plates (Corning, Wiesbaden, Germany) with an inoculum of 10^5 bacteria/well and incubated at 37°C overnight. The optical density of the cultures was determined at 460 and 600 nm immediately after inoculation and after overnight incubation using a BioTek Synergy HT plate reader. Controls included bacterial strains, medium alone and wells without peptide additions. A serial dilution of each peptide was done before bacteria addition. A serial dilution of media including the respective peptide solvent without peptides supplement (Dimethylsulfoxid; Sigma-Aldrich, Taufkirchen, Germany or 1 x phosphate buffered saline; Biochrom, Berlin, Germany) functions as control to ensure the solvent influence on growth.

K. pneumoniae = assay: as above; assay type: cell-based; conditions: K. pneumoniae ATCC 700603
Experimental: as §1

E. faecalis = assay: as above; assay type: cell-based; conditions: E. faecalis ATCC 29212
Experimental: as §1

S. aureus = assay: as above; assay type: cell-based; conditions: S. aureus ATCC 29213
Experimental: as §1

E. coli = assay: as above; assay type: cell-based; conditions: E. coli ATCC 25922
Experimental: as §1

P. aeruginosa = assay: as above; assay type: cell-based; conditions: P. aeruginosa ATCC 27853
Experimental: as §1

red blood cells = assay type: cell-based; conditions: data not shown
Experimental: Hemolysis assays were performed on red blood cells and cytotoxicity tests with two cell lines (HeLa, A549). No potent hemolytic activity for all peptides up to a concentration of 250 µg/mL, corresponding to concentrations of 140 µM (AbuR14) - 125 µM (TfeGlyR14) was determined (data not shown).

C. albicans = assay: Minimum inhibitory concentration (MIC) assay, CLSI broth dilution; assay type: cell-based; conditions: C. albicans IMT 9655

Structure (SMILES): CC[C@H](NC(=O)[C@H](CCCNC(=N)N)NC(=O)[C@H](CC)NC(=O)[C@H](CCCNC(=N)N)NC(=O)[C@@H](C)NC(=O)c1ccccc1NC(=O)[C@@H](Cc1ccccc1)NC(=O)[C@@H](CC(C)C)NC(=O)[C@H](CCCNC(=N)N)NC(=O)[C@H](CC)NC(=O)[C@H](CCCNC(=N)N)NC(=O)[C@H](CC)NC(=O)[C@H](CCCNC(=N)N)NC(C)=O)C(=O)N[C@@H](CCCNC(=N)N)C(N)=O [AbuR14, Ac-R-Abu-R-Abu-R-[I-f-[2]Abz-a]-R-Abu-R-Abu-R-NH2] (Ac-R[Abu]R[Abu]R[dL][dF][2Abz][dA]R[Abu]R[Abu]R-NH2)
- pEC50 [1]: 3.83
- 1*MIC (S. Typhimurium): 256 µg/mL
- 1*MIC (K. pneumoniae): ≥1024 µg/mL
- 1*MIC (E. faecalis): 512 µg/mL
- 1*MIC (S. aureus): ≥1024 µg/mL
- 1*MIC (E. coli): 128 µg/mL
- 1*MIC (P. aeruginosa): ≥1024 µg/mL
- No potent hemolytic activity up to a concentration (corresponding concentration) (red blood cells; corresponding to 250 µg/mL): > 140 µM
- 1*MIC (C. albicans): 512 µg/mL

Structure (SMILES): CC(C)C[C@@H](NC(=O)[C@H](CCCNC(=N)N)NC(=O)[C@H](Cc1c[nH]c2ccccc12)NC(=O)[C@H](CCCNC(=N)N)NC(=O)[C@@H](NC(=O)[C@@H](N)CCCNC(=N)N)C(C)C)C(=O)N[C@H](Cc1ccccc1)C(=O)Nc1ccccc1C(=O)N[C@H](C)C(=O)N[C@@H](CCCNC(=N)N)C(=O)N[C@@H](Cc1c[nH]c2ccccc12)C(=O)N[C@@H](CCCNC(=N)N)C(=O)N[C@H](C(=O)N[C@@H](CCCNC(=N)N)C(=O)O)C(C)C [SAJO-2, H-R-Val-R-Trp-R-[I-f-[2]Abz-a]-R-Trp-R-Val-R-OH, reference compound] (H-RVRWR[dL][dF][2Abz][dA]RWRVR-OH; N-terminus and C-terminus assumed)
- pEC50 [1]: 4.15
- peptide-induced hemolysis at minimum concentrations (red blood cells; red blood cells): ≥ 0.5 mg/mL
